Results from ChEMBL document CHEMBL6153058, “Pyrrolopyrazine Compounds as ERK5 Inhibitors for Treating Cancer” (ACS Med Chem Lett, 2025).

Target: Mitogen-activated protein kinase 7 (Homo sapiens, UniProt Q13164)
Assay: Inhibition of ERK5 in human SN12C cells assessed as reduction in luminescence signal by bright glo reagent based luminescent cell assay

Sequence of Mitogen-activated protein kinase 7 (Q13164 whole entry): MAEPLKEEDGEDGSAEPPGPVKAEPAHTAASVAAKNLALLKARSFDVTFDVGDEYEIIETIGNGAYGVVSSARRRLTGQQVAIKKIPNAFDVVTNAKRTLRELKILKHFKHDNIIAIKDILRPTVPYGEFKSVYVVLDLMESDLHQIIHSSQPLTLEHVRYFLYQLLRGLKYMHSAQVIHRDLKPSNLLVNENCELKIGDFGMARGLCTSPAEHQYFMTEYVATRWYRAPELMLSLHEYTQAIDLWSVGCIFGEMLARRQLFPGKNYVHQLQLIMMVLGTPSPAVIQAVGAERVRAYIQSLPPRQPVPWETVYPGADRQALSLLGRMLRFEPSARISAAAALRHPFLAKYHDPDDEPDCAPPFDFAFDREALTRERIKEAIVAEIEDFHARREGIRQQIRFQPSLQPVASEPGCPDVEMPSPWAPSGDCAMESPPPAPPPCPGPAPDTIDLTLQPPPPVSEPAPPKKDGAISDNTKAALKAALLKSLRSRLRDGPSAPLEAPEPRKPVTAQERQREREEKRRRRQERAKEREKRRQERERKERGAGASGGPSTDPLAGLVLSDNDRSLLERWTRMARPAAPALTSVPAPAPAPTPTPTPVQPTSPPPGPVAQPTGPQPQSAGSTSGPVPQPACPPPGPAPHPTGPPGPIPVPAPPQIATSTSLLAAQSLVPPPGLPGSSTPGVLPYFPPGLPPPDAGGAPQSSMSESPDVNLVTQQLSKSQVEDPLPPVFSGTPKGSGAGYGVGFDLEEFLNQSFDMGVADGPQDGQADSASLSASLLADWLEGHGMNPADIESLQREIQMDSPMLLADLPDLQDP

Structure (SMILES)	IC50
Nc1cc(OC(F)(F)F)ccc1C(=O)N1CCC(c2c[nH]c3ncc(C4CCOC4)nc23)CC1 (configuration not stated)	21 nM
Nc1cc(OC(F)(F)F)ccc1C(=O)N1CCC(c2c[nH]c3ncc([C@H]4CC[C@H](O)CC4)nc23)CC1	17 nM
